Results reported in patent US10590129B2 (Incozen Therapeutics Pvt. Ltd., priority 2010, dated 2020).

Tests used:
[1] = target: T1, Met kinase (Homo sapiens, UniProt P08581); test: MET kinase assay (colorimetric determination of c-Met kinase activity, HTScan Met Kinase Assay Kit); assay type: biochemical; parameters: purchased Cell Signalling Technology, Beverly, Mass; conditions: for IC50: c-Met kinase
Excerpt: 1. MET Kinase Assay Protocol:
Colorimetric Determination of c-Met Kinase Activity
The receptor tyrosine kinase c-Met is a heterodimeric transmembrane glycoprotein involved in several cellular processes that aid in tumor progression. Phosphorylation of the tyrosine residues in the c-Met kinase domain is critical for its activity and the resulting down-stream effects. The colorimetric assay allows detection of the phosphorylated form of a biotinylated peptide upon activation of human recombinant Met kinase.
MET Kinase Assay Protocol:
c-Met Kinase activity shall be determined using an HTScan® Met Kinase Assay Kit (Cell Signalling Technology, Beverly, Mass.) with modifications. All incubations are carried out at room temperature. Briefly, 12.5 μl of a 4× reaction cocktail (DTT/Kinase buffer containing appropriate quantity of human Met kinase) is added to each well of a 96-well plate containing 12.5 μl pre-diluted compound of interest and incubated for 5 minutes. After the initial incubation, 25 μl/well of 2×ATP/biotinylated peptide is added and incubated for an additional 30 minutes. The reaction is terminated by the addition of 50 μl/well stop buffer (50 mM EDTA, pH 8.0). The reaction mixture (25 μl/well) is then transferred to a streptavidin coated plate (Perkin Elmer, Cat#4009-0010) containing 75 μl dH2O and incubated for 60 minutes. The plate is washed with 200 μl/well wash buffer (1×PBS, 0.05% Tween-20). After washing, 100 μl/well phospho-tyrosine mAb (1:1000 in wash buffer containing 1% BSA) is added and incubated for 60 minutes. After another round of washes, 100 μl/well europium labelled anti-mouse IgG (1:500 in wash buffer containing 1% BSA) is added and incubated for an additional 30 minutes. Following additional washes, 100 μl/well Delfia® enhancement solution (Perkin Elmer, Cat#1244-105) is added and incubated for 45 minutes. Florescence is measured on a microplate reader (BMG Labtech., Germany) at 340 nm (excitation) and 615 nm (emission) for calculating % inhibition. Data generated can be analyzed further using Graphpad Prism (Graphpad software, San Diego Calif.) for determination of IC50.

[2] = test system: MKN-45 cells; test: Inhibition of MKN-45 proliferation (MTT); assay type: cell-based, human; conditions: for Inhibition (% Inhibition of MKN-45 proliferation) / inhibition at 0.1 µM: 0.1 μM
Summary of the method: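 High-Met human gastric adenocarcinoma MKN-45 cells plated in complete growth medium, compounds added next day and viability read 3 days later by MTT dye reduction.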

[3] = target: T2, c-Met (Homo sapiens, UniProt P08581); test: Inhibition of c-Met kinase phosphorylation in MKN-45 cells (cell based ELISA); parameters: endogenous in cells; host or cells: MKN-45; conditions: 1 h
T2 sequence (P08581 25-1390): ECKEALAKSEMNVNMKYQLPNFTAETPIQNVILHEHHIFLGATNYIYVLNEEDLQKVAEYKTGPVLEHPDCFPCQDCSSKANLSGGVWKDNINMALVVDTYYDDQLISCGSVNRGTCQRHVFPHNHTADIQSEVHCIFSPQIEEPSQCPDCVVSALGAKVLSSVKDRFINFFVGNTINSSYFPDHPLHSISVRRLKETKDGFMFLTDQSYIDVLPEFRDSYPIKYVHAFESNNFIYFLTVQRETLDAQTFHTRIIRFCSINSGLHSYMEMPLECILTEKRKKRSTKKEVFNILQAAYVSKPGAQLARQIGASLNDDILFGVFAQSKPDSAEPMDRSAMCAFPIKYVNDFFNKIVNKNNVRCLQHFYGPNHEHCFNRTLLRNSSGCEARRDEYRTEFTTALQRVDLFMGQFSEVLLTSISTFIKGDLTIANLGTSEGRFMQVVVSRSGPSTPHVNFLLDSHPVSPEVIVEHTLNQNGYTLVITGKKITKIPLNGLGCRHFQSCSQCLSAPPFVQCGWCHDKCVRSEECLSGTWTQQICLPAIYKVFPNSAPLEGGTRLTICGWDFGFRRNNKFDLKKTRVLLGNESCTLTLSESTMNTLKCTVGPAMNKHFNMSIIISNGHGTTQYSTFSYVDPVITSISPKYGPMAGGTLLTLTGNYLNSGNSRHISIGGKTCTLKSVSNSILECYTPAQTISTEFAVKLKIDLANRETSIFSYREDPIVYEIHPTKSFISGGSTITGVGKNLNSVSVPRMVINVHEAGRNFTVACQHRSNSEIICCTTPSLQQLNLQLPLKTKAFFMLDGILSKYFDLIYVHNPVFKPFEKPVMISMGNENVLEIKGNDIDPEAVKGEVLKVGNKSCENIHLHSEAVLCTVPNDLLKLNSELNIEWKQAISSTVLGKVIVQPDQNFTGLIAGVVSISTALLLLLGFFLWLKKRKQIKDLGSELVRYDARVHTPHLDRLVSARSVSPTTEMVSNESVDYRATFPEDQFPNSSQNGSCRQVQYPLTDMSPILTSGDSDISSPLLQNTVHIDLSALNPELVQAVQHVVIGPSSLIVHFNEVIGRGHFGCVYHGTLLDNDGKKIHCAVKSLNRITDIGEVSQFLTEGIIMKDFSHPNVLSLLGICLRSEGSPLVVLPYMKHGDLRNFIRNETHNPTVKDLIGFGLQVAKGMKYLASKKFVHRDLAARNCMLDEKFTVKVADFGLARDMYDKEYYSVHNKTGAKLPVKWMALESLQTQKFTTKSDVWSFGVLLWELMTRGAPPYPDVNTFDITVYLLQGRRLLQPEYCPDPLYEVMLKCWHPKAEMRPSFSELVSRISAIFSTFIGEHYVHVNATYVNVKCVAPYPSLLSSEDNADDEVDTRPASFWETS
Description: Inhibition of c-Met Kinase Phosphorylation in MKN-45 Cells:
MKN45 cells are a prototype of “c-Met addicted” cells having constitutively activated c-Met kinase similar to that observed in sub-sects of gastric or hepatocellular cancer patients with dysregulated c-Met kinase activity. Inhibition of Met phosphorylation was determined using a cell based ELISA assay according to the following schedule:
Day 1: MKN-45 cells were plated in 96-well plates in complete growth medium.
Day 2: Inhibitors at the desired concentration were added to the plates and incubated for 1 h and lysed subsequently.
Lysates were transferred to NUNC Maxisorp plates coated with anti-cMet receptor antibody. Phopho-tyrosine mAb and HRP-lined anti-mouse IgG were used as primary and secondary antibodies respectively. Optical density was measured on a microplate reader (BMG Labtech., Germany) at […]. Inhibition of c-Met phosphorylation in this cell line indicates a therapeutic potential for test compounds in patients diagnosed with cancers caused by aberrant c-Met kinase signalling.

[4] = target: T2, c-Met; test: Inhibition of c-Met kinase phosphorylation in NCI-H441 cells (cell based ELISA); parameters: endogenous in cells; host or cells: NCI-H441; conditions: 1 h
Description: Inhibition of c-Met Kinase Phosphorylation in NCI—H441 Cells:
Inhibition of Met phosphorylation was determined using a cell based ELISA assay according to the following schedule:
Day 1: NCI—H441 cells were plated in 96-well plates in complete growth medium.
Day 2: Inhibitors at the desired concentration were added to the plates, incubated for 1 h and lysed subsequently. Lysates were transferred to NUNC Maxisorp plates coated with anti-cMet receptor antibody. Phopho-tyrosine mAb and HRP-lined anti-mouse IgG were used as primary and secondary antibodies respectively. Optical density was measured on a microplate reader (BMG Labtech., Germany) at […].

[5] = target: T1, Met kinase; test: Inhibition of HGF-induced Met phosphorylation in MDA-MB-231 cells; assay type: cell-based; parameters: endogenous in cells; host or cells: MDA-MB-231; conditions: HGF 50 ng/ml, read-out: HGF stimulated Met phosphorylation (IC50)
[6] = test system: MKN-45 cells; test: Induction of apoptosis in MKN-45 cells (caspase-3 activity); assay type: cell-based, human; conditions: @ 3 μM, 24 h, caspase-3, percent of maximum response
Description: 6. Induction of Apoptosis in MKN-45 Cells:
Induction of Caspase 3 was measured fluorimetrically. Cells were incubated with desired concentrations of the compound for 24 h. After incubation, cells were harvested and counted. An equal number of viable cells per well (0.3×10^6 cells) were used for determination of caspase-3 activity. Increase in apoptosis manifested by an elevation in caspase-3 levels was determined using a Caspase-3 kit from Millipore. Data are expressed as a percent of the maximum response (100%).

[7] = test system: Akt; test: Inhibition of Akt phosphorylation in MKN-45 cells (western blot, pAkt S473); assay type: cell-based; conditions: Homo sapiens
Description: (§1) Inhibition of Akt Phosphorylation in MKN-45 or NCI-11441 Cells:
(§2) Akt is a serine-threonine kinase and a downstream marker regulated by c-Met kinase via the PI3K pathway. Once phosphorylated, Akt regulates several end processes including cell survival and growth. Cells were treated with 0−1000 nM of test compounds, lysed, and the proteins separated on a 10% SDS-PAGE. Following separation, proteins were transferred onto a nitrocellulose membrane and detected by chemiluminescence after incubation with pAkt S473 mAb (primary) and rabbit anti-mouse Ab (secondary). Intensity of the bands was determined using ImageJ 1.42q (NIH, USA) and normalized to Actin (loading control).

[8] = test system: Akt; test: Inhibition of Akt phosphorylation in NCI-H441 cells (western blot, pAkt S473); assay type: cell-based; conditions: Homo sapiens
Description: as §1, §2

[9] = Homo sapiens, MKN-45, MKN-45 proliferation

T1 sequence (P08581 25-1390): as above

| SMILES | inhibition at 1 µM [1] | IC50 [1] | melting point | GI50 [2, 9] | IC50 [3] | IC50 [4] | IC50 [5] | IC50 [7] | IC50 [8] | Apoptosis in MKN-45 cells (percentage induction) [6] | Inhibition (% Inhibition of MKN-45 proliferation) ([2]; MKN-45 proliferation) | inhibition at 0.1 µM [2, 9] | % inhibition @ 1 uM ([2]; MKN-45 proliferation, 1 μM) | inhibition at 1 µM ([2]; Homo sapiens, MKN-45, MKN-45 proliferation, 1 μM) |
| --- | --- | --- | --- | --- | --- | --- | --- | --- | --- | --- | --- | --- | --- | --- |
| CNC(=O)c1ccc(-c2ccc3nnn(Cc4ccc5ncccc5c4)c3n2)cc1 [Ex 9, N-Methyl-4-(3-(quinolin-6-ylmethyl)-3H-[1,2,3]triazolo[4,5-b]pyridin-5-yl)benzamide] | 75 to 100% | 50 to 100 nM | 220 to 222 °C | 50 to 150 nM | 50 to 150 nM | – | – | – | – | – | – | – | – | – |
| CNC(=O)c1ccc(-c2ccc3nnn(Cc4ccc5ncccc5c4)c3n2)cc1F [Ex 14, 2-Fluoro-N-methyl-4-(3-(quinolin-6-ylmethyl)-3H-[1,2,3]triazolo[4,5-b]pyridin-5-yl)benzamide] | 75 to 100% | 100 to 250 nM | 212 to 214 °C | 50 to 150 nM | 50 to 150 nM | 10 to 50 nM | – | – | – | – | – | – | – | – |
| OCc1ccc(-c2ccc3nnn(Cc4ccc5ncccc5c4)c3n2)cc1F [Ex 16, (2-Fluoro-4-(3-(quinolin-6-ylmethyl)-3H-[1,2,3]triazolo[4,5-b]pyridin-5-yl)phenyl)methanol] | 75 to 100% | 50 to 100 nM | 202 to 204 °C | ≤ 50 nM | ≤ 50 nM | – | – | – | – | – | – | – | – | – |
| O=C(Nc1nc[nH]n1)c1ccc(-c2ccc3nnn(Cc4ccc5ncccc5c4)c3n2)cc1F [Ex 52, 2-Fluoro-4-(3-(quinolin-6-ylmethyl)-3H-[1,2,3]triazolo[4,5-b]pyridin-5-yl)-N-(1H-1,2,4-triazol-3-yl)benzamide] | 75 to 100% | ≤ 50 nM | 265 to 267 °C | ≤ 50 nM | ≤ 50 nM | ≤ 10 nM | – | 50 to 100 nM | ≤ 25 nM | A (A = >50 to 100%) | D (D = <25%) | – | – | – |
| CCNC(=O)c1ccc(-c2ccc3nnn(Cc4ccc5ncccc5c4)c3n2)cc1Cl [Ex 119, 2-Chloro-N-ethyl-4-(3-(quinolin-6-ylmethyl)-3H-[1,2,3]triazolo[4,5-b]pyridin-5-yl)benzamide] | 75 to 100% | ≤ 50 nM | 187 to 190 °C | ≤ 50 nM | ≤ 50 nM | ≤ 10 nM | ≤ 10 nM | ≤ 25 nM | ≤ 25 nM | A (A = >50 to 100%) | A (A = ≥75 to 100%) | – | – | – |
| NC(=O)c1c(F)cc(-c2ccc3nnn(Cc4ccc5ncccc5c4)c3n2)cc1F [Ex 130, 2,6-Difluoro-4-(3-(quinolin-6-ylmethyl)-3H-[1,2,3]triazolo[4,5-b]pyridin-5-yl)benzamide] | 75 to 100% | ≤ 50 nM | – | ≤ 50 nM | ≤ 50 nM | – | ≤ 10 nM | 50 to 100 nM | 25 to 50 nM | B (B = ≤50) | A (A = ≥75 to 100%) | – | – | – |
| Cl.NC(=O)c1c(F)cc(-c2ccc3nnn(Cc4ccc5ncccc5c4)c3n2)cc1F [Ex 139, 2,6-Difluoro-4-(3-(quinolin-6-ylmethyl)-3H-[1,2,3]triazolo[4,5-b]pyridin-5-yl)benzamide hydrochloride] | – | – | – | – | – | ≤ 10 nM | – | – | – | – | B (B = ≥50-<75%) | – | – | < 25% |
| OCCn1cc(-c2ccc3nnn(Cc4ccc5ncccc5c4)c3n2)cn1 [Ex 146, 2-(4-(3-(Quinolin-6-ylmethyl)-3H-[1,2,3]triazolo[4,5-b]pyridin-5-yl)-1H-pyrazol-1-yl)ethanol] | – | – | – | 50 to 150 nM | 50 to 150 nM | 50 to 100 nM | – | – | 25 to 50 nM | – | – | – | – | – |

Further lines, with some results ahead:

| inhibition at 1 µM [1] | IC50 [1] | melting point | GI50 [2, 9] | IC50 [3] | IC50 [4] | IC50 [5] | IC50 [7] | IC50 [8] | SMILES | Apoptosis in MKN-45 cells (percentage induction) [6] | Inhibition (% Inhibition of MKN-45 proliferation) ([2]; MKN-45 proliferation) | inhibition at 0.1 µM [2, 9] | % inhibition @ 1 uM ([2]; MKN-45 proliferation, 1 μM) | inhibition at 1 µM ([2]; Homo sapiens, MKN-45, MKN-45 proliferation, 1 μM) |
| --- | --- | --- | --- | --- | --- | --- | --- | --- | --- | --- | --- | --- | --- | --- |
| 75 to 100% | 50 to 100 nM | 198 to 200 °C | 50 to 150 nM | 50 to 150 nM | 10 to 50 nM | ≤ 10 nM | 100 to 200 nM | ≤ 25 nM | NC(=O)c1ccc(-c2ccc3nnn(Cc4ccc5ncccc5c4)c3n2)cc1F [Ex 15, 2-Fluoro-4-(3-(quinolin-6-ylmethyl)-3H-[1,2,3]triazolo[4,5-b]pyridin-5-yl)benzamide] | A (A = >50 to 100%) | – | – | – | – |
| 75 to 100% | ≤ 50 nM | 212 to 215 °C | ≤ 50 nM | ≤ 50 nM | ≤ 10 nM | ≤ 10 nM | ≤ 25 nM | ≤ 25 nM | NC(=O)c1ccc(-c2ccc3nnn(Cc4ccc5ncccc5c4)c3n2)cc1Cl [Ex 108, 2-Chloro-4-(3-(quinolin-6-ylmethyl)-3H-[1,2,3]triazolo[4,5-b]pyridin-5-yl)benzamide] | A (A = >50 to 100%) | – | 50 to 75% | – | – |
| 75 to 100% | ≤ 50 nM | – | ≤ 50 nM | ≤ 50 nM | ≤ 10 nM | 10 to 50 nM | ≤ 25 nM | ≤ 25 nM | NC(=O)c1ccc(-c2ccc3nnn(Cc4cc5cccnc5cc4F)c3n2)cc1Cl [Ex 134, 2-Chloro-4-(3-((7-fluoroquinolin-6-yl)methyl)-3H-[1,2,3]triazolo[4,5-b]pyridin-5-yl)benzamide] | A (A = >50 to 100%) | – | 50 to 75% | – | – |
| 75 to 100% | ≤ 50 nM | – | ≤ 50 nM | ≤ 50 nM | ≤ 10 nM | – | – | – | NC(=O)c1ccc(-c2ccc3nnn(Cc4cc5cccnc5cc4F)c3n2)cc1F [Ex 137, 2-Fluoro-4-(3-((7-fluoroquinolin-6-yl)methyl)-3H-[1,2,3]triazolo[4,5-b]pyridin-5-yl)benzamide] | – | – | 75 to 100% | B (B = ≥50-<75%) | – |
